Experiments:
Experiment in all cases: Kinase selectivity, Z'-LYTE
Format in all cases: biochemical
KDR (VEGFR2) = molecular target: T1, KDR (VEGFR2) (Homo sapiens, UniProt P35968)
T1 construct: purchased Invitrogen (Life Technologies) SelectScreen Z'-LYTE
Method: (§1) Kinase selectivity was assessed using a commercial service that employs a fluorescence-based, coupled-enzyme assay based on the differential sensitivity of phosphorylated and non-phosphorylated peptides to proteolytic cleavage (Invitrogen, Z'-LYTE®). This assay uses recombinant protein kinases and assay mixed optimized for each particular kinase (http://www.lifetechnologies.com/us/en/home/life-science/drug-discovery/target-and-lead-identification-and-validation /kinasebiology/kinase-activity-assays/z-lyte.html).

SYK = molecular target: T2, SYK (Homo sapiens, UniProt P43405)
T2 construct: purchased Invitrogen (Life Technologies) SelectScreen Z'-LYTE
Method: as §1

CSNK1G2 (CK1 gamma 2) = molecular target: T3, CSNK1G2 (CK1 gamma 2) (Homo sapiens, UniProt P78368)
T3 construct: purchased Invitrogen (Life Technologies) SelectScreen Z'-LYTE
Method: as §1

ROCK2 = molecular target: T4, ROCK2 (Homo sapiens, UniProt O75116)
T4 construct: purchased Invitrogen (Life Technologies) SelectScreen Z'-LYTE
Method: as §1

PIM1 = molecular target: T5, PIM1 (Homo sapiens, UniProt P11309)
T5 construct: purchased Invitrogen (Life Technologies) SelectScreen Z'-LYTE
Method: as §1

ITK = molecular target: T6, ITK (Homo sapiens, UniProt Q08881)
T6 construct: purchased Invitrogen (Life Technologies) SelectScreen Z'-LYTE
T6 sequence (Q08881 1-620): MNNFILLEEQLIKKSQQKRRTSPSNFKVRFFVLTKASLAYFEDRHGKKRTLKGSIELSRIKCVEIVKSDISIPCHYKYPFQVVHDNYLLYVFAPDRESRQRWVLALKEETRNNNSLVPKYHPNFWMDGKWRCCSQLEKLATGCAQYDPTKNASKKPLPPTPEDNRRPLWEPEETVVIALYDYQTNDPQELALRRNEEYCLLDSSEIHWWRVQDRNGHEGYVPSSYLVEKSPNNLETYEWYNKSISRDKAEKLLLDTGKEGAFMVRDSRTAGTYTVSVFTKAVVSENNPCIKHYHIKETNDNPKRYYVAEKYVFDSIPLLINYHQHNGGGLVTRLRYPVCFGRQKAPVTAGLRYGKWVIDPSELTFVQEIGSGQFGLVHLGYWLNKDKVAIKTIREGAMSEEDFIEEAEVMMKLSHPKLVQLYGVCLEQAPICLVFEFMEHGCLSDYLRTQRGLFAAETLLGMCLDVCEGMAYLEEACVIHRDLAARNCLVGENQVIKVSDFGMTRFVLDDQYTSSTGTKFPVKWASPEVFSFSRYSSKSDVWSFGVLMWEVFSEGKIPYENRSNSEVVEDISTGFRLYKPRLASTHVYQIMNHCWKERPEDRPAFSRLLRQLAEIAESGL
Method: as §1

JAK2 = molecular target: T7, JAK2 (Homo sapiens, UniProt O60674)
T7 construct: purchased Invitrogen (Life Technologies) SelectScreen Z'-LYTE
Method: as §1

CDK9/cyclin T1 = molecular target: T8, CDK9/cyclin T1 (Homo sapiens, UniProt P50750)
T8 construct: purchased Invitrogen (Life Technologies) SelectScreen Z'-LYTE
Method: as §1

ABL1 = molecular target: T9, ABL1 (Homo sapiens, UniProt P00519)
T9 construct: purchased Invitrogen (Life Technologies) SelectScreen Z'-LYTE
Method: as §1

ERBB4 (HER4) = molecular target: T10, ERBB4 (HER4) (Homo sapiens, UniProt Q15303)
T10 construct: purchased Invitrogen (Life Technologies) SelectScreen Z'-LYTE
Method: as §1

AKT1 (PKB alpha) = molecular target: T11, AKT1 (PKB alpha) (Homo sapiens, UniProt P31749)
T11 construct: purchased Invitrogen (Life Technologies) SelectScreen Z'-LYTE
Method: as §1

MAP2K2 (MEK2) = molecular target: T12, MAP2K2 (MEK2) (Homo sapiens, UniProt P36507)
T12 construct: purchased Invitrogen (Life Technologies) SelectScreen Z'-LYTE
Method: as §1

STK22D (TSSK1) = molecular target: T13, STK22D (TSSK1) (Homo sapiens, UniProt Q9BXA7)
T13 construct: purchased Invitrogen (Life Technologies) SelectScreen Z'-LYTE
T13 sequence (Q9BXA7 1-367): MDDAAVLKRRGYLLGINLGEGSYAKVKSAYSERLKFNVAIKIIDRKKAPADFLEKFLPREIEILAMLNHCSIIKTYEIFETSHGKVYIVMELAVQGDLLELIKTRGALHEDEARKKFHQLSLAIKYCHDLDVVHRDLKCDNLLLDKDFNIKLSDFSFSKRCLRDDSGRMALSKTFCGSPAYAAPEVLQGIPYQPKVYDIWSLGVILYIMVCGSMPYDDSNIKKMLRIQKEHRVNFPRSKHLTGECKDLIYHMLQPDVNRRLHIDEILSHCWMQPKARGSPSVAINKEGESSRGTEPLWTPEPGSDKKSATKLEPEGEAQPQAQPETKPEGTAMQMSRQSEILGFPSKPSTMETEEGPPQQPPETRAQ
Method: as §1

LYNA = molecular target: T14, LYNA (Homo sapiens, UniProt P07948)
T14 construct: purchased Invitrogen (Life Technologies) SelectScreen Z'-LYTE
Method: as §1

ADRBK1 (GRK2) = molecular target: T15, ADRBK1 (GRK2) (Homo sapiens, UniProt P25098)
T15 construct: purchased Invitrogen (Life Technologies) SelectScreen Z'-LYTE
T15 sequence (P25098 1-689): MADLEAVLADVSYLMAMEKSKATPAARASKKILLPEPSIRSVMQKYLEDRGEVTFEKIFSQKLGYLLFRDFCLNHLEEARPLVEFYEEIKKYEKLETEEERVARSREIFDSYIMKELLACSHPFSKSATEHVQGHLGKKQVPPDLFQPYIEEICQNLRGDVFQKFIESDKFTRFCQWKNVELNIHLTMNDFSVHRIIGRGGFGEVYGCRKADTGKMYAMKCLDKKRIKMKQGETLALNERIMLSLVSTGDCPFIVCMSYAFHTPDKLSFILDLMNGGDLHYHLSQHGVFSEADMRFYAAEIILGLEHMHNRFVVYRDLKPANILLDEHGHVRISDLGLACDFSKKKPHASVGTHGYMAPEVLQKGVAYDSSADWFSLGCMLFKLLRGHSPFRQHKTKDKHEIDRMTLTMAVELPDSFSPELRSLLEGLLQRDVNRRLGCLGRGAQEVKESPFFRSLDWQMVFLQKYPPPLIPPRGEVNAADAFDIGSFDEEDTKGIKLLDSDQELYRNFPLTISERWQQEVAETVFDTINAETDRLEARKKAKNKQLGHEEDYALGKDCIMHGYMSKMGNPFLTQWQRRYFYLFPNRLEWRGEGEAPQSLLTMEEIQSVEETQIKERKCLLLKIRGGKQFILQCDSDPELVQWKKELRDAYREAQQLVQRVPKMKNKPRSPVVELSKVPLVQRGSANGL
Method: as §1

MAPK9 (JNK2) = molecular target: T16, MAPK9 (JNK2) (Homo sapiens, UniProt P45984)
T16 construct: purchased Invitrogen (Life Technologies) SelectScreen Z'-LYTE
Method: as §1

CDK5/p35 = molecular target: T17, CDK5/p35 (Homo sapiens, UniProt Q00535)
T17 construct: purchased Invitrogen (Life Technologies) SelectScreen Z'-LYTE
Method: as §1

SRC = molecular target: T18, SRC (Homo sapiens, UniProt P12931)
T18 construct: purchased Invitrogen (Life Technologies) SelectScreen Z'-LYTE
Method: as §1

T12 sequence (P36507 whole entry): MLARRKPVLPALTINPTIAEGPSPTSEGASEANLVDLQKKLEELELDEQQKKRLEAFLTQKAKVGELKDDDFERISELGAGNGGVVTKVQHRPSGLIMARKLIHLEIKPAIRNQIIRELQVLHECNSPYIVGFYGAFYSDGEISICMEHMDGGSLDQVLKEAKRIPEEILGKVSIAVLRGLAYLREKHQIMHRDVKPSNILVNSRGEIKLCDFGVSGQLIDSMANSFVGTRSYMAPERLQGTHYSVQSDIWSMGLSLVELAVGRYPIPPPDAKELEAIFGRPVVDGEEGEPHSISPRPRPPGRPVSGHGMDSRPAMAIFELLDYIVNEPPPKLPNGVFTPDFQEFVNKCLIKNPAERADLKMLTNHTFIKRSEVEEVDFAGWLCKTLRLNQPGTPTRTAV
T17 sequence (Q00535 whole entry): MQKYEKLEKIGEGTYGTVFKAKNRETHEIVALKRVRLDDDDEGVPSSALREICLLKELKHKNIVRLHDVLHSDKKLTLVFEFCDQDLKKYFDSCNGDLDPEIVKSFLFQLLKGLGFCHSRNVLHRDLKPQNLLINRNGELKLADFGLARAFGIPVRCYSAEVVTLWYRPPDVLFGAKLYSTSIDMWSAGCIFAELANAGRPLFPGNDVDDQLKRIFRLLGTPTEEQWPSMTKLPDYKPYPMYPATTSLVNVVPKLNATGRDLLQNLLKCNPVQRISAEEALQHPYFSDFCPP
T17 sequence (Q15078 whole entry partner): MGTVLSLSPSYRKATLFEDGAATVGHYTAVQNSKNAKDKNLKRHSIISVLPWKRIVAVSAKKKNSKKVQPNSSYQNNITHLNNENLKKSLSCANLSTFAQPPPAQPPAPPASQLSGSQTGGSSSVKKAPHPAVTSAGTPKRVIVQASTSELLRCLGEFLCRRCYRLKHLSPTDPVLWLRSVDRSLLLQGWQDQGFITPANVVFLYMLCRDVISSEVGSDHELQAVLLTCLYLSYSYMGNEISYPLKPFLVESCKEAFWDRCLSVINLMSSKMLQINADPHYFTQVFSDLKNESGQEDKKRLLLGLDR
T11 sequence (P31749 whole entry): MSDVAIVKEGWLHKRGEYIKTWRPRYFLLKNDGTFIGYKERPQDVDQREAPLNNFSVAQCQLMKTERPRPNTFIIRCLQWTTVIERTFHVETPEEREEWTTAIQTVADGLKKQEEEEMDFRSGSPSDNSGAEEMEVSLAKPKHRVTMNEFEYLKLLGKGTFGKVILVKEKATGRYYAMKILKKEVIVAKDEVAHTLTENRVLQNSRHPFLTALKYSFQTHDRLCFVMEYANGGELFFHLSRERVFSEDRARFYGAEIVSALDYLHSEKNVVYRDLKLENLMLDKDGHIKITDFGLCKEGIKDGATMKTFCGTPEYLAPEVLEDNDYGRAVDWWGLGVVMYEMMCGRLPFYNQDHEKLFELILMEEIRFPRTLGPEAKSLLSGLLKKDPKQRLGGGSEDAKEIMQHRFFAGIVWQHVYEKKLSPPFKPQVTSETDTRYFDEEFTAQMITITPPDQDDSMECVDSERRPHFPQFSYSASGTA
T9 sequence (P00519 whole entry): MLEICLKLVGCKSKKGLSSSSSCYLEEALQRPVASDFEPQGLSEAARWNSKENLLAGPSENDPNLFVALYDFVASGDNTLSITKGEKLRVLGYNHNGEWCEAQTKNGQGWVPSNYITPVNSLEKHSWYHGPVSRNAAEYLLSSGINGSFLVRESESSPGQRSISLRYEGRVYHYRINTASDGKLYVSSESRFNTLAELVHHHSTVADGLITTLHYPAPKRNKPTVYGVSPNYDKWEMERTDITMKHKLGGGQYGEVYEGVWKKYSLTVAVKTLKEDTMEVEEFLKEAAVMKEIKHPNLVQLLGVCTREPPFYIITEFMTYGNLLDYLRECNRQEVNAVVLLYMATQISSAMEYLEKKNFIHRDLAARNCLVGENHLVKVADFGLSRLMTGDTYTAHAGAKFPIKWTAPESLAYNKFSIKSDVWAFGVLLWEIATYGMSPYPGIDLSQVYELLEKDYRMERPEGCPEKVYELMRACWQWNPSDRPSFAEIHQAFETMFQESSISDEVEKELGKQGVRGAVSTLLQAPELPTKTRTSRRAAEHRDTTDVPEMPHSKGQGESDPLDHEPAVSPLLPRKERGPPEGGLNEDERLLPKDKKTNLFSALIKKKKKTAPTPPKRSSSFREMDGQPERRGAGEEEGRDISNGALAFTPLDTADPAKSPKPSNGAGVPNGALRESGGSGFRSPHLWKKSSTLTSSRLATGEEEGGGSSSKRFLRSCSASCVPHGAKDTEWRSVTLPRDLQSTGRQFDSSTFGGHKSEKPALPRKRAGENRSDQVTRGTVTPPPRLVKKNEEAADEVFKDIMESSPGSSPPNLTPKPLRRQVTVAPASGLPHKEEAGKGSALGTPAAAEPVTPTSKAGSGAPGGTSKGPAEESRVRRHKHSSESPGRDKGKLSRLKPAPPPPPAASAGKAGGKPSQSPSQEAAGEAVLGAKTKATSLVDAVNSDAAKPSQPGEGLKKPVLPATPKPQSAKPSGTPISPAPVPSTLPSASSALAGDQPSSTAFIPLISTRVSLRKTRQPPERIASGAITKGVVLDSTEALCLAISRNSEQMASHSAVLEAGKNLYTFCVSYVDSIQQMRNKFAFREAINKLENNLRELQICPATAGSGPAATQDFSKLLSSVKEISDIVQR
T4 sequence (O75116 whole entry): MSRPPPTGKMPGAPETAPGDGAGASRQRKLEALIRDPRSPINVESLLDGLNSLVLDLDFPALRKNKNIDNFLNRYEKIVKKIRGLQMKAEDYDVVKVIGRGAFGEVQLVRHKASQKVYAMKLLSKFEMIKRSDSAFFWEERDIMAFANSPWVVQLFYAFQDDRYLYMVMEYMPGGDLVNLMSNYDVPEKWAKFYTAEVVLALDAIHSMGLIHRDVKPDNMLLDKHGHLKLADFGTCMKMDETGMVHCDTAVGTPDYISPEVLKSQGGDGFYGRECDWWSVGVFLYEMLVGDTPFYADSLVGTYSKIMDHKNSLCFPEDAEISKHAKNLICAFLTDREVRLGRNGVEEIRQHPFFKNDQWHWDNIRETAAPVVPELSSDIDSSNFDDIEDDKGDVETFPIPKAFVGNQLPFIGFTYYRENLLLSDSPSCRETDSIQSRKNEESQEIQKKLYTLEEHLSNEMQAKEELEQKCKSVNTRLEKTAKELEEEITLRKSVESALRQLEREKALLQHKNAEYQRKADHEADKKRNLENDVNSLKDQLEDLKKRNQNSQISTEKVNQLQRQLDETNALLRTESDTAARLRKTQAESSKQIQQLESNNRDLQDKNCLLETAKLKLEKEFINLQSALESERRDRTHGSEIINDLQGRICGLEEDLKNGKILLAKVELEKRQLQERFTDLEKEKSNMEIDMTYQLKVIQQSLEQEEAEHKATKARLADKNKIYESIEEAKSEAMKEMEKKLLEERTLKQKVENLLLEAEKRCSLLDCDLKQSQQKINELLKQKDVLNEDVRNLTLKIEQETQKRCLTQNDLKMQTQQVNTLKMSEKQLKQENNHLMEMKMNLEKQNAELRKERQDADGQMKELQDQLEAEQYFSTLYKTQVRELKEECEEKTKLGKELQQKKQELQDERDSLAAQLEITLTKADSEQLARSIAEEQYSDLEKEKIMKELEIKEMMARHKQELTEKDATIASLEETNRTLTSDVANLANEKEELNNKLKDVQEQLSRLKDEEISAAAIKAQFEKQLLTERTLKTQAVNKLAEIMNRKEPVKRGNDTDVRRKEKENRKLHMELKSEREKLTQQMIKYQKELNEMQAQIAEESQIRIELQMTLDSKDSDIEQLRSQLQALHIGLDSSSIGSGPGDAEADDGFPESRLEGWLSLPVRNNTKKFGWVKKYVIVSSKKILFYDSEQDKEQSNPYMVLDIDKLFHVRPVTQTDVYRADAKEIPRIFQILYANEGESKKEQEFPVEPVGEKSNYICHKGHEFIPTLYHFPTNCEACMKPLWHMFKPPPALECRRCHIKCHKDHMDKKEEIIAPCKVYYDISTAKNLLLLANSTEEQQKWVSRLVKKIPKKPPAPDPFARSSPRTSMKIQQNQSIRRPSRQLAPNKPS
T3 sequence (P78368 whole entry): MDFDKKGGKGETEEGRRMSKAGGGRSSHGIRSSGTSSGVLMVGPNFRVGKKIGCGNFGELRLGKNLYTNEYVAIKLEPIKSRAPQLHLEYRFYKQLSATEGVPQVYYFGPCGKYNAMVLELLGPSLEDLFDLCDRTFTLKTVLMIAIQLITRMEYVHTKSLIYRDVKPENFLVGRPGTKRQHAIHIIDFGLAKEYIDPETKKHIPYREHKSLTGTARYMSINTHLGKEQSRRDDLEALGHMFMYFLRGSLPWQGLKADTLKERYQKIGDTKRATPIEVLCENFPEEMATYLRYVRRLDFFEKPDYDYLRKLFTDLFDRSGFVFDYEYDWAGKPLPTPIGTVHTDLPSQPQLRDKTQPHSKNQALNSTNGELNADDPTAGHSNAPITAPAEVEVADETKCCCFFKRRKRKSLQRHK
T18 sequence (P12931 whole entry): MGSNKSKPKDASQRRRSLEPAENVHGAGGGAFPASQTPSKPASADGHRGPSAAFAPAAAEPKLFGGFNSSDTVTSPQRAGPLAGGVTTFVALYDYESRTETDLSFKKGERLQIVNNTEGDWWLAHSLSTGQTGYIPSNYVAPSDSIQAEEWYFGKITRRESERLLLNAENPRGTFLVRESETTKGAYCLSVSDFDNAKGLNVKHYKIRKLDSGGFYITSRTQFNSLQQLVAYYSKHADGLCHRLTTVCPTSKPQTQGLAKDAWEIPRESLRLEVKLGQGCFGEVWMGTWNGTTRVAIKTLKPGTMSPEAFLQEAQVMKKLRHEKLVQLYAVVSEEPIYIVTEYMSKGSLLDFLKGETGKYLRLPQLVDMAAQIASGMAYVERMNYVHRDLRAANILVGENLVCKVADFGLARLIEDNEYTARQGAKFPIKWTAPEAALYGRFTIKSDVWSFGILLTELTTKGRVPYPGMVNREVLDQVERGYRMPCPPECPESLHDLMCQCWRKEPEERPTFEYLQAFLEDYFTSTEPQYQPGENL

| SMILES | % inhibition of activity (KDR (VEGFR2)) | % inhibition of activity (SYK) | % inhibition of activity (CSNK1G2 (CK1 gamma 2)) | % inhibition of activity (ROCK2) | % inhibition of activity (PIM1) | % inhibition of activity (ITK) | % inhibition of activity (JAK2) | % inhibition of activity (CDK9/cyclin T1) | % inhibition of activity (ABL1) | % inhibition of activity (ERBB4 (HER4)) | % inhibition of activity (AKT1 (PKB alpha)) | % inhibition of activity (MAP2K2 (MEK2)) | % inhibition of activity (STK22D (TSSK1)) | % inhibition of activity (LYNA) | % inhibition of activity (ADRBK1 (GRK2)) | % inhibition of activity (MAPK9 (JNK2)) | % inhibition of activity (CDK5/p35) | % inhibition of activity (SRC) |
| --- | --- | --- | --- | --- | --- | --- | --- | --- | --- | --- | --- | --- | --- | --- | --- | --- | --- | --- |
| CCn1c(=O)c(-c2ccc(-c3cncc(C)n3)cc2Cl)cc2cnc(NCCC3CCN(C)CC3)nc21 [Frax1036] | 16% | 4% | 3% | 7% | 0% | 0% | 0% | −8% | 18% | 0% | 0% | 15% | 12% | 39% | 0% | 44% | 7% | 16% |
| Cc1nc(Nc2[nH]nc3c2CN(C(=O)N[C@H](CN(C)C)c2ccccc2)C3(C)C)c2sccc2n1 [PF3758309, reference compound] | 20% | 32% | 9% | 10% | 6% | 23% | 14% | 13% | 62% | 2% | 16% | 20% | 90% | 76% | 10% | 0% | 15% | 74% |
| CCn1c(=O)c(-c2ccc(-c3noc(C)n3)cc2Cl)cc2cnc(Nc3ccc(C4CCN(C)CC4)cc3)nc21 [Frax716] | 90% | 21% | 3% | 4% | −4% | 84% | 7% | 3% | 93% | 77% | 1% | 79% | 5% | 88% | 10% | 20% | 2% | 97% |

— article PMC4385830, “Group I Paks as therapeutic targets in NF2-deficient meningioma” (Oncotarget, 2015)
